Reference: patent US9187410B2, “Process for isolating tigecycline and tigecycline made therefrom” (Hovione Inter Limited, priority 2009, dated 2015)

Key:
Assay type in all cases: physicochemical
[1] = Dynamic Vapour Sorption (DVS) water uptake; settings: 25° C.
Method: We also have performed Dynamic Vapour Sorption studies (DVS) and these studies have shown that samples of tigecycline isolated by spray drying and by lyophilzation have distinctive hygroscopic behavior. […] The DVS conditions were as follows: temperature-25° C.; equilibrium criteria 0.00% w/w every 10 min; maximum equilibrium time—120 min; start RH—5%; maximum RH—95%; steps—10%. A vapor sorption analyzer (VTI-SGA 100) was used. […] The difference in the water uptake between the two forms increases with RH for most of the isotherm. By RH we mean relative humidity, the amount of water vapor that exists in a gaseous mixture of air and water. At 45% humidity, the spray dried sample takes up 2.9% w/w water and lyophilized sample 3.9% w/w water. At 95% humidity, the difference is even more evident: the spray dried form takes up 22.6% w/w water and the lyophilized form 24.5% w/w water. The form obtained by lyophilization is more hygroscopic than the form obtained by spray drying.

[2] = Modulated differential scanning calorimetry (mDSC/DSC) of amorphous tigecycline; settings: unstressed sample; for glass transition temperature (Tg): mDSC, 25° C. to 300° C. at 3° C./min
Method: The DSC apparatus used was a DSC Q200 from TA Instruments, using the following settings: method—from 25° C. to 300° C. at 3° C./min; modulate +/−0.50° C. every 40 seconds. In addition to a higher Tg value, spray dried tigecycline also crystallizes and melts (after crossing the glass transition) at higher temperature than lyophilized tigecycline. By Tg we mean the critical temperature at which the material changes its behaviour from being ‘glassy’ to being ‘rubbery’. ‘Glassy’ in this context means hard and brittle (and therefore relatively easy to break), while ‘rubbery’ means elastic and flexible.

[3] = DSC after fast stress conditions (oven at 100° C. for 24 hours); settings: after 24 hours at 100° C.
Method: The DSC apparatus used was a DSC Q200 from TA Instruments, using the following settings: method—from 25° C. to 300° C. at 3° C./min; modulate +/−0.50° C. every 40 seconds. Spray dried tigecycline and lyophilized tigecycline were submitted to fast stress conditions by placing the samples in an oven at 100° C. for 24 hours. The reversible and total flow DSC curves for the stressed samples were then measured and the results are presented in FIG. 4 and FIG. 5 respectively.

Row | SMILES | water uptake ([1]; 45% humidity, listed as lyophilized sample) | water uptake ([1]; 95% humidity, listed as lyophilized form) | glass transition temperature (Tg) ([2]; listed as lyophilized compound of formula [1]) | crystallization temperature after stress [3] | glass transition temperature after stress [3] | water uptake ([1]; 45% humidity, listed as spray dried sample) | water uptake ([1]; 95% humidity, listed as spray dried form) | glass transition temperature (Tg) ([2]; listed as amorphous compound of formula [1] obtained by spray drying) | crystallisation temperature ([2]; total heat flow DSC)
1 | CN(C)c1cc(NC(=O)CNC(C)(C)C)c(O)c2c1C[C@H]1C[C@H]3[C@H](N(C)C)C(O)=C(C(N)=O)C(=O)[C@@]3(O)C(O)=C1C2=O [lyophilized tigecycline, tigecycline] | 3.9 % w/w | 24.5 % w/w | 126 °C | – | – | – | – | – | –
2 | CN(C)c1cc(NC(=O)CNC(C)(C)C)c(O)c2c1C[C@H]1C[C@H]3[C@H](N(C)C)C(O)=C(C(N)=O)C(=O)[C@@]3(O)C(O)=C1C2=O [spray dried tigecycline, tigecycline] | – | – | – | ≥ 154 °C | ≥ 143 °C | 2.9 % w/w | 22.6 % w/w | 129 °C | ≥ 146 °C
